The NIST ThermoML archive (doi:10.1016/j.jct.2012.12.001)

Experiment: heat capacity at constant pressure per volume; xn = mol fraction of the nth substance listed
Conditions: 101 kPa, Liquid, DSC, x2 = 0.713

CCCCCCCCCCCCCCCCCC [octadecane] + N#Cc1ccccc1
Conditions	heat capacity [J/K/m3]
303.58 K	1893500
303.61 K	1895600
303.64 K	1894200
303.66 K	1894100
303.69 K	1893500
303.72 K	1893700
303.75 K	1897900
303.78 K	1897000
303.8 K	1893000
303.83 K	1895200
303.86 K	1892600
303.89 K	1900300
303.92 K	1898300
303.94 K	1898400
303.97 K	1899900
304 K	1891800
304.03 K	1897900
304.06 K	1900800
304.09 K	1899300
304.11 K	1897800
304.14 K	1899100
304.17 K	1900600
304.2 K	1897100
304.23 K	1902700
304.25 K	1900600
304.28 K	1893900
304.31 K	1900100
304.34 K	1897300
304.37 K	1899500
304.39 K	1898900
304.42 K	1904200
304.45 K	1900400
304.48 K	1895000
304.51 K	1898500
304.54 K	1903400
304.56 K	1902200
304.59 K	1903900
304.62 K	1901200
304.65 K	1901800
304.68 K	1903500
304.7 K	1904200
304.73 K	1899600
304.76 K	1899700
304.79 K	1900400
304.82 K	1904800
304.84 K	1903700
304.87 K	1904600
304.9 K	1904600
304.93 K	1903200
304.96 K	1902600
304.98 K	1900600
305.01 K	1902200
305.04 K	1902200
305.07 K	1903000
305.1 K	1907100
305.12 K	1903100
305.15 K	1908100
305.18 K	1904700
305.21 K	1904200
305.24 K	1905700
305.27 K	1907500
305.29 K	1908300
305.32 K	1908600
305.35 K	1908400
305.38 K	1906900
305.41 K	1907700
305.44 K	1908100
305.46 K	1909400
305.49 K	1908500
305.52 K	1909000
305.55 K	1908400
305.57 K	1909200
305.6 K	1906500
305.63 K	1908200
305.66 K	1908500
305.69 K	1909100
305.72 K	1909500
305.74 K	1911100
305.77 K	1910000
305.8 K	1907500
305.83 K	1908700
305.86 K	1914100
305.88 K	1911500
305.91 K	1910100
305.94 K	1909200
305.97 K	1909700
306 K	1906900
306.02 K	1909600
306.05 K	1913100
306.08 K	1913500
306.11 K	1917400
306.14 K	1917300
306.17 K	1913000
306.19 K	1914700
306.22 K	1914300
306.25 K	1915600
306.28 K	1918100
306.31 K	1915700
306.33 K	1916100
306.36 K	1913300
306.39 K	1910700
306.42 K	1914500
306.45 K	1911200
306.48 K	1914800
306.5 K	1918100
306.53 K	1921200
306.56 K	1920200
306.59 K	1916400
306.62 K	1922000
306.64 K	1923600
306.67 K	1922600
306.7 K	1921800
306.73 K	1922000
306.76 K	1921100
306.78 K	1915500
306.81 K	1915900
306.84 K	1920400
306.87 K	1916900
306.9 K	1923600
306.93 K	1927300
306.95 K	1929700
306.98 K	1927500
307.01 K	1924100
307.04 K	1928000
307.06 K	1932100
307.09 K	1924600
307.12 K	1927400
307.15 K	1929100
307.18 K	1928200
307.21 K	1926400
307.23 K	1925500
307.26 K	1931000
307.29 K	1928800
307.32 K	1935200
307.35 K	1931700
307.37 K	1930400
307.4 K	1932600
307.43 K	1934400
307.46 K	1934700
307.49 K	1935300
307.51 K	1940700
307.54 K	1937500
307.57 K	1936300
307.6 K	1936200
307.63 K	1932400
307.66 K	1937300
307.68 K	1942100
307.71 K	1944000
307.74 K	1939900
307.77 K	1932400
307.8 K	1938300
307.82 K	1947000
307.85 K	1949300
307.88 K	1946700
307.91 K	1938400
307.94 K	1933900
307.96 K	1951300
307.99 K	1961700
308.02 K	1944900
308.05 K	1926900
308.08 K	1941200
308.11 K	1958000
308.13 K	1970100
308.16 K	1961600
308.19 K	1937100
308.22 K	1930400
308.25 K	1946700
308.27 K	1964400
308.3 K	1971900
308.33 K	1970700
308.36 K	1959500
308.39 K	1936500
308.42 K	1912300
308.44 K	1924300
308.47 K	1951900
308.5 K	2008600
308.53 K	2043600
308.56 K	2018100
308.58 K	1941300
308.61 K	1912700
308.64 K	1927600
308.67 K	1961900
308.7 K	1999600
308.72 K	2029400
308.75 K	2032700
308.78 K	1994600
308.81 K	1952000
308.84 K	1951000
308.87 K	1967200
308.89 K	1986400
308.92 K	2016500
308.95 K	2025600
308.98 K	1992600
309 K	1977300
309.03 K	1975500
309.06 K	1984100
309.09 K	2003300
309.12 K	2020100
309.15 K	2018700
309.17 K	2001300
309.2 K	1997100
309.23 K	1999200
309.26 K	2022000
309.29 K	2056100
309.31 K	2064600
309.34 K	2035200
309.37 K	2025000
309.4 K	2039600
309.43 K	2070400
309.45 K	2095200
309.48 K	2108700
309.51 K	2150900
309.54 K	2201100
309.57 K	1939300
309.6 K	1869500
309.62 K	1848200
309.65 K	1833800
309.68 K	1826700
309.71 K	1819300
309.74 K	1817500
309.76 K	1810200
309.79 K	1806800
309.82 K	1803600
309.85 K	1800700
309.88 K	1798700
309.9 K	1794300
309.93 K	1792100
309.96 K	1792800
309.99 K	1790300
310.02 K	1787500
310.05 K	1785800
310.07 K	1787100
310.1 K	1782100
310.13 K	1784300
310.16 K	1779800
310.19 K	1779800
310.21 K	1778600
310.24 K	1778600
310.27 K	1775500
310.3 K	1773400
310.33 K	1772700
310.35 K	1774100
310.38 K	1771100
310.41 K	1773500
310.44 K	1771400
310.47 K	1770500
310.5 K	1768500
310.52 K	1769800
310.55 K	1768900
310.58 K	1766300
310.61 K	1764600
310.64 K	1764400
310.66 K	1764600
310.69 K	1763300
310.72 K	1763400
310.75 K	1765000
310.78 K	1762800
310.8 K	1762200
310.83 K	1757300
310.86 K	1761100
310.89 K	1760100
310.92 K	1760700
310.94 K	1761100
310.97 K	1760600
311 K	1759800
311.03 K	1759800
311.06 K	1758100
311.09 K	1757600
311.11 K	1758300
311.14 K	1758800
311.17 K	1757800
311.2 K	1757900
311.23 K	1756900
311.25 K	1754900
311.28 K	1754400
